The target of data set [1] is T1, PAC1 receptor (PAC1R) (Homo sapiens, UniProt P41586).
T1 sequence (P41586 21-468): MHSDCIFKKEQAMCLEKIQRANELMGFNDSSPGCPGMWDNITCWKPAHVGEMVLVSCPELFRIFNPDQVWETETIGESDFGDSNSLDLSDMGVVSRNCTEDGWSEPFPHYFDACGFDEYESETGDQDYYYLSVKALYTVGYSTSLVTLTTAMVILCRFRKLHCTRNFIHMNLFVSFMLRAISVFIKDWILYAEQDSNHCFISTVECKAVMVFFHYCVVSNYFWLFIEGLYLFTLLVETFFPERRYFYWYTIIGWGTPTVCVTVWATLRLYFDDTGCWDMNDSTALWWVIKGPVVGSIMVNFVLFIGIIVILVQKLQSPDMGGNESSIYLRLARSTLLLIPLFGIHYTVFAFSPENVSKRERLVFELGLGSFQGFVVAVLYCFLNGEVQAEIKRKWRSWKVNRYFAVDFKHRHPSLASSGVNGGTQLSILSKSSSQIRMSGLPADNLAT
To be noted: background statement; cited from earlier work.

The target in data set [2] is T2, VPAC1 receptor (Homo sapiens, UniProt P32241).
T2 construct: host or cells: CHO-K1
T2 sequence (P32241 31-457): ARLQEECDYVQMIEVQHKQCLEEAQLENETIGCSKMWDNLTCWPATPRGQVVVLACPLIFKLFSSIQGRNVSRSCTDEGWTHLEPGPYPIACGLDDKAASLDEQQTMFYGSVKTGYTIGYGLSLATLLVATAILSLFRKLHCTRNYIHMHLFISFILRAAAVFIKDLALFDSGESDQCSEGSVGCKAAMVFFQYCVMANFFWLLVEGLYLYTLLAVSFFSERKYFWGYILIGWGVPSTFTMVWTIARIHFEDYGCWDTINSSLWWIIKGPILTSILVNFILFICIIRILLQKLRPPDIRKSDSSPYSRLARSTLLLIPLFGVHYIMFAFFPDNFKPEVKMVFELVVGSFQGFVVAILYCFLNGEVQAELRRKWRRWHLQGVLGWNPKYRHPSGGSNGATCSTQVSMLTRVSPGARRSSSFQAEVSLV
Nature of the data set: cAMP assay in CHO-K1 cells, VPAC1 receptor high-expressing cell line. Type of data set: cell-based. To be noted: 30 minutes incubation. As to the method:
The cells were cultured for 18 to 24 hours at 37° C. in a 5% CO2 incubator, adhering the cells to the plate. […] A 5-fold dilution series was then prepared with the same Cell assay buffer and used in an assay. The cAMP assay was carried out using a Hit Hunter cAMP Assay for Biologics kit (product of DiscoveRx, Cat. No. 90-0075LM25), according to the included kit instructions. […] Next, the culture medium was removed from the CHO-K1 cell culture plate, washing was performed with PBS, and the peptide-cAMP antibody liquid mixtures were added to the cells and incubated for 30 minutes under a 5% CO2 atmosphere at 37° C. A working detection solution was then added and the culture plate was shielded from light with aluminum foil and incubated at 25° C. for 1 hour. After incubation, Solution A was added and the culture plate was shielded from light with aluminum foil and then incubated at 25° C. for 3 hours. […] The obtained value for the Relative Luminescence Unit (RLU) was analyzed with GraphPad Prism Ver 6.05 (product of Graph Pad) and the EC50 value was calculated for each peptide.

Data set [3] can be described thus: Stability test 1: survival rate of peptide in phosphate buffer (pH 7.0) after storage, HPLC. Format: physicochemical. To be noted: 100 μM peptide. In short, it runs like this: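 Peptide solutions at 100 μM in phosphate buffer were stored at 40° C. for 1 week to 2 months depending on peptide. Remaining peptide was measured by reverse-phase HPLC peak area against an unstored standard, with survival rate also corrected for water loss through the container from weighing before and after storage.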

Experiment in data set [4]: as above
Type of data set: physicochemical. To be noted: 100 μM peptide, 0.1% phosphate buffer pH 7.0, head prints 80° C., 8 weeks (Table 4).

Where [5] appears, read: phosphate buffer pH 7.0, 40° C., 4 weeks (Table 8).

Non-standard residues stand in square brackets, D forms with d. Residues, ends and D or L forms follow the SMILES beside them. ξ: configuration not given here. *: point of attachment. Ala(1H-tetrazol-5-yl) = N[C@@H](Cc1nnn[nH]1)C(=O)O; ξAla(tetrazol-5-yl) = NC(Cc1nnn[nH]1)C(=O)O; Isobutyryl = CC(C)C(=O)*; Nle = CCCC[C@H](N)C(=O)O; Butyryl = CCCC(=O)*

Take “Pituitary adenylate cyclase-activating polypeptide [PACAP]”: the “affinity of PAC1R for PACAP relative to affinity of PAC1R for VIP” value in data set [1] is given as “more than 1000 times”.
In data set [2], `CCCC[C@H](NC(=O)[C@H](CCC(N)=O)NC(=O)[C@H](CCCCN)NC(=O)[C@H](CCCNC(=N)N)NC(=O)[C@H](Cc1ccc(O)cc1)NC(=O)[C@H](CCCNC(=N)N)NC(=O)[C@H](CO)NC(=O)[C@H](Cc1ccc(O)cc1)NC(=O)[C@H](CO)NC(=O)[C@H](Cc1nnn[nH]1)NC(=O)[C@@H](NC(=O)[C@H](Cc1ccccc1)NC(=O)[C@@H](NC(=O)CNC(=O)[C@H](Cc1nnn[nH]1)NC(=O)[C@H](CO)NC(=O)[C@H](Cc1c[nH]cn1)NC(=O)CCC)[C@@H](C)CC)[C@@H](C)O)C(=O)N[C@@H](C)C(=O)N[C@H](C(=O)N[C@@H](CCCCN)C(=O)N[C@@H](CCCCN)C(=O)N[C@@H](Cc1ccc(O)cc1)C(=O)N[C@@H](CC(C)C)C(=O)N[C@@H](C)C(=O)N[C@@H](C)C(=O)N[C@H](C(=O)N[C@@H](CC(C)C)C(N)=O)C(C)C)C(C)C` [Peptide 18] (Butyryl-HS[Ala(1H-tetrazol-5-yl)]GIFT[Ala(1H-tetrazol-5-yl)]SYSRYRKQ[Nle]AVKKYLAAVL-NH2) displayed an EC50 of 0.069 nM. In addition, in data set [3] (setting [5]), the “survival rate after correction for water, 40° C. 4 week” value worked out at 65.1%.
Taken in the same sequence, the figures for `CCCC[C@H](NC(=O)[C@H](CCC(N)=O)NC(=O)[C@H](CCCCN)NC(=O)[C@H](CCCNC(=N)N)NC(=O)[C@H](Cc1ccc(O)cc1)NC(=O)[C@H](CCCNC(=N)N)NC(=O)[C@H](CO)NC(=O)[C@H](Cc1ccc(O)cc1)NC(=O)[C@H](CO)NC(=O)[C@H](Cc1nnn[nH]1)NC(=O)[C@@H](NC(=O)[C@H](Cc1ccccc1)NC(=O)[C@@H](NC(=O)CNC(=O)[C@H](Cc1nnn[nH]1)NC(=O)[C@H](CO)NC(=O)[C@H](Cc1c[nH]cn1)NC(=O)C(C)C)[C@@H](C)CC)[C@@H](C)O)C(=O)N[C@@H](C)C(=O)N[C@H](C(=O)N[C@@H](CCCCN)C(=O)N[C@@H](CCCCN)C(=O)N[C@@H](Cc1ccc(O)cc1)C(=O)N[C@@H](CC(C)C)C(=O)N[C@@H](C)C(=O)N[C@@H](C)C(=O)N[C@H](C(=O)N[C@@H](CC(C)C)C(N)=O)C(C)C)C(C)C` [Peptide 19, HSTzGI FTTzSY SRYRK QNIAVK KYLAA VL] (Isobutyryl-HS[Ala(1H-tetrazol-5-yl)]GIFT[Ala(1H-tetrazol-5-yl)]SYSRYRKQ[Nle]AVKKYLAAVL-NH2) were 0.069 nM and 68.7%.
For the compound `CC[C@H](C)[C@H](NC(=O)CNC(=O)C(Cc1nnn[nH]1)NC(=O)[C@H](CO)NC(=O)[C@@H](N)Cc1c[nH]cn1)C(=O)N[C@@H](Cc1ccccc1)C(=O)N[C@@H](C)C(=O)NC(Cc1nnn[nH]1)C(=O)N[C@@H](C)C(=O)N[C@@H](Cc1ccc(O)cc1)C(=O)N[C@@H](C)C(=O)N[C@@H](CCCNC(=N)N)C(=O)N[C@@H](Cc1ccc(O)cc1)C(=O)N[C@@H](CCCNC(=N)N)C(=O)N[C@@H](CCCCN)C(=O)N[C@@H](CCC(N)=O)C(=O)N[C@@H](CCSC)C(=O)N[C@@H](C)C(=O)N[C@H](C(=O)N[C@@H](CCCCN)C(=O)N[C@@H](CCCCN)C(=O)N[C@@H](Cc1ccc(O)cc1)C(=O)N[C@@H](CC(C)C)C(=O)N[C@@H](C)C(=O)N[C@@H](C)C(=O)N[C@H](C(=O)N[C@@H](CC(C)C)C(N)=O)C(C)C)C(C)C` (some centres unmarked) [Peptide 3, HSTzGI FATzAY ARYRK QMAVK KYLAA VL] (H-HS[ξAla(tetrazol-5-yl)]GIFA[ξAla(tetrazol-5-yl)]AYARYRKQMAVKKYLAAVL-NH2), the response in data set [2] was half-maximal at 0.111 nM (EC50). Further, the “survival rate after correction for water, 80° C. 8 week” value in data set [4] was determined as 85.4%. Besides, in data set [3] (0.1% phosphate buffer pH 7.0, 40° C., 4 weeks (Table 4)), the “survival rate after correction for water, 40° C. 4 week” value came to 92.9%.

(Values after patent US20250263459A1, “STABILIZED PACAP PEPTIDE” (SENJU PHARMACEUTICAL CO., LTD., priority 2019, published 2025).)
